Data taken from patent publication US7867702B2, “Screen for novel protein inhibitors based upon engineered cell line containing an inducible overactivity gene and compensatory gene” (priority 2003, dated 2011).

Columns and labels:
[1] = tested on: strain SF58 (dnaA219, rnh::cam/pdnaA[1-86]-biotin); assay: Growth of strain SF58 at 30° C. with IPTG-induced Domain I of DnaA (flask cultures, OD450); assay type: cell-based, E. coli; conditions: for difference in OD450, induced vs uninduced culture: 10 parallel cultures
Procedure: The following experiments were performed to provide evidence that strain SF53 will survive when a drug has inactivated the DnaA protein. Such evidence can be obtained without a lead drug, by using production of the N-terminal domain (Domain I amino acids 1 to 86) of wild type DnaA. Domain I of DnaA is important for oligomerization and formation of proper initiation complexes. […] Strain SF53 was transformed with a plasmid carrying an IPTG-inducible gene encoding biotin-tagged Domain I (pBEX5BA-dnaA[1-86]-biotin), transformants checked, and the strain named SF58 (Table 1).
The growth of strain SF58 was tested at three different concentrations of IPTG. An overnight culture of strain SF58 grown at 42° C. was diluted 1:1000 in fresh ABB1 glucose CAA medium and split into five flasks. Culture nos. 1 to 4 were grown at 30° C. and culture no. 5 at 42° C. IPTG was added to culture no. 2, 3 and 4 at a concentration of 0.25, 0.5 and 1 mM, respectively, at the time of dilution. Growth curves were followed by measurement of OD450 for 8 hours. […] The OD450 was less than 0.03 at all time points.
The concentrations of Domain I present after 4 generations growth in the presence of the three different concentrations of IPTG, was assessed by Western blot. A ten-fold difference in OD450 between the culture grown without IPTG (culture no. 1) and the culture grown with 1 mM IPTG (culture no. 4) was obtained after about 10 hours. Thus, when performing a drug screen with the dnaA219rnh strain, a positive hit will be detected by a ten-fold difference in OD450 after about 10 hours in the presence of the drug.
To determine the robustness of the screen and also at which time, in a high throughput assay, it is optimal to measure the difference in OD450 we made the following measurements (FIG. 2). Essentially the same experiment as in FIG. 1 was performed, but OD450 was measured at only three time points, 20 h, 27 h and 48 h, in 10 different parallel cultures. A 20-40 fold difference was obtained after 20 h and after 27 h. After 48 h a background in the uninduced culture started to appear and the difference dropped to about 5 fold. Therefore, measurements of OD450 in high throughput screens should be performed after 10-30 hours of incubation.

SF58 = assay: Microtiter-format growth of SF58 with IPTG (assay validation, positive control); assay type: cell-based, E. coli; conditions: 0.31 mM IPTG and above vs 0 to 0.16 mM IPTG, 30° C., after 18 hours
Procedure: The first part of an assay transfer & validation procedure involves the reproduction of the results in microtiter format. […] All 48 replicate cultures of the same microtiter plate of FIG. 3 behaved similarly. […] In addition, after 18 h (6.4×10^4 s) the OD's of the induced cultures are well above controls.
A series of experiments were then performed to assess the signal as a function of the starting inoculum (i.e. the theoretical OD of the culture present in a microtiter well). The data (not shown) indicate that there is no significant difference in the SF58-IPTG growth curve if the inoculum is obtained by dilution of an overnight culture or of an actively growing 42° C.-culture. Consequently, the time for measuring the OD was set at 18 h, and the procedure used was to grow 5 μl of SF53 or SF58 in 30 ml glucose CAA medium (with […]) overnight at 42° C. until the OD600 was 1.2. The stock was diluted 1:100 in glucose CAA (without […]). 90 μl of this was dispensed into each well, with 10 μl of sample. […]
Following the procedure outlined above, a screening of 4240 microbial extracts was performed. Each 96-microtiter plate contained as controls four wells inoculated with SF53, four wells inoculated with SF58 and 8 wells inoculated with SF58 in the presence of 2.5 mM IPTG. […]

CC(C)S[C@@H]1O[C@H](CO)[C@H](O)[C@H](O)[C@H]1O [IPTG]
difference in OD450 between culture grown without IPTG and culture grown with IPTG ([1]; 1 mM IPTG, 30° C., after about 10 hours): ten-fold | growth rate of SF58 cultures grown at 30° C. with IPTG ([1]; IPTG 0.25, 0.5 and 1 mM, 30° C., OD450 followed for 8 hours): increasing growth rates with increasing concentration of IPTG | difference in OD450, induced vs uninduced culture ([1]; after 20 h, 30° C.): 20-40 fold | difference in OD450, induced vs uninduced culture ([1]; after 27 h, 30° C.): 20-40 fold | difference in OD450, induced vs uninduced culture ([1]; after 48 h, 30° C.): about 5 fold | OD405 of induced SF58 cultures compared with controls (SF58): significantly higher than controls

B1: Domain I: N-terminal domain (amino acids 1 to 86) of wild type DnaA, biotin-tagged, expressed in SF58; poisons initiation complexes (protein, UniProt P03004 1-86, looked up, fragment)
chain: MSLSLWQQCLARLQDELPATEFSMWIRPLQAELSDNTLALYAPNRFVLDWVRDKYLNNINGLLTSFCGADAPQLRFEVGTKPVTQT
modifications: biotin tag
notes: N-terminal domain (amino acids 1 to 86) of wild type DnaA, biotin-tagged, expressed in SF58; poisons initiation complexes
growth of the strain at 30° C. ([1]; induction of Domain I by IPTG in SF58, 30° C.): restored
